According to patent US8093209B2, “Methods of suppressing microglial activation and systemic inflammatory responses” (Cognosci, Incorporated, priority 2002, dated 2012):

How the values were obtained:
[1] = system: thioglycollate-elicited peritoneal macrophages; experiment: [Ca2+]i in Fura-2/AM treated single macrophages, digital imaging microscopy (Example 10); assay type: cell-based, mouse; conditions: 1000-fold molar excess RAP, 10 mM NiCl2, or 1 μg/ml pertussis toxin 12 h
Method: (§1) Macrophage Harvesting. All experiments involving animals were first approved by the Duke Institutional Animal Care and Use Committee. Pathogen-free female C57BL/6 mice and ApoE deficient mice previously backcrossed 10 times to the C57BL/6 strain were obtained from the Jackson Laboratory (Bar Harbor, Me.). Thioglycollate-elicited peritoneal macrophages were harvested by peritoneal lavage using 10 ml of ice-cold Hanks' balanced salt solution containing 10 mM HEPES and 3.5 mM NaHCO3 (HHBSS), pH 7.4. The macrophages were pelleted by centrifugation at 4° C. at ˜800×g for 10 min and resuspended in RPMI 1640 media supplemented with 25 mM HEPES, 12.5 U/ml penicillin, 6.5 mg/ml streptomycin, and 5% fetal bovine serum.
Measurement of [Ca^2+]i in apoE and peptide treated macrophage. Changes in [Ca^2+]i levels in Fura-2/AM treated single cells were quantified using digital imaging microscopy in accordance with known techniques. Macrophages were plated on glass coverslips sitting in 35 mm Petri dishes at a density of 1.5×10^5 cells/cm^2, and allowed to adhere for 2 h in a humidified 5% CO2 incubator at 37° C. The non-adherent cells were aspirated and the monolayers were washed twice with HHBSS. 4 μM Fura-2/AM was incubated with the cells for thirty min in the dark at room temperature and [Ca^2+]i was subsequently measured using a digital imaging microscope in accordance with known techniques. […] To determine if signaling resulted from ligation of the ligand to LRP, cells were preincubated with a 1000-fold molar excess of RAP or 10 mM NiCl2, both of which inhibit ligand binding to LRP, for 5 min prior to stimulation with apoE or peptide. In experiments in which the involvement of a G protein was assessed, monolayers were incubated with 1 μg/ml pertussis toxin for 12 h at 37° C. and Ca^2+ measurements were made as stated above.

[2] = system: thioglycollate-elicited peritoneal macrophages; experiment: IP3 formation in myo-[2-3H]inositol-labeled macrophages (Example 10); assay type: cell-based, mouse; conditions: pertussis toxin pretreatment
Method: as §1, with “serum. Cell viability was determined by the trypan blue exclusion method and was consistently greater then 95%.” for “serum.”
Measurement of IP3 in apoE treated macrophage and effect of pertussis toxin. The formation of IP3 in myo-[2-^3H]inositol-labeled macrophages under various experimental conditions was quantified in accordance with known techniques. Macrophage were plated in 6 well plates (4×10^6 cells/well) and allowed to adhere at 37° C. for 2 h in a humidified 5% CO2 incubator. Medium was aspirated from the monolayers and RPMI 1640 medium containing 0.25% BSA and myo-[2-^3H]inositol (specific activity 10-20 Ci/mmol) was added to each well. […] Radioactivity was determined by placing aliquots in a liquid scintillation counter to determine radioactivity. […] The effect on IP3 formation was measured as described above.

[3] = system: primary rat neuronal/glial cultures exposed to NMDA; experiment: NMDA-induced LDH release in primary neuronal-glial cultures; assay type: cell-based; conditions: 6 μM peptide, 100 μM NMDA
Method: (§2) Primary neuronal-glial cultures were prepared from fetal Sprague-Dawley rat brains at 18 days of gestation as previously described (Pearlstein et al., 1998). Brains were harvested from 10-15 pups and dissected to separate cortex from meninges and subcortical structures using anatomical landmarks. Cortices were pooled and minced into 2 mm^3 pieces in a buffered salt solution supplemented with 20 mM HEPES buffer, pH 7.4, containing 0.25% trypsin. The tissue was incubated for 20 minutes at 37° C. in a 5% CO2/95% room air atmosphere, and washed twice with ice-cold, glutamine-free minimum essential medium (MEM; Life Technologies) containing 15 mM glucose, 5% fetal bovine serum (GIBCO), 5% horse serum (GIBCO), and 1% DNase-I (Sigma Chemical Co., St. Louis, Mo., USA). Tissue pieces were dissociated by trituration through a fire-polished 9-inch Pasteur pipette (I.D.=0.7 mm). The resultant suspension was centrifuged at 50×g for 10 min, the supernatant discarded, and the pellet resuspended in growth medium (MEM supplemented with 15 mM glucose, 5% fetal bovine serum, and 5% horse serum). The dissociated cells were plated to achieve a confluent monolayer using 4×10^5 cells per well in poly-D-lysine coated, 24-well culture plates (Falcon 3047; Becton Dickinson Co., Lincoln Park, N.J., USA). Cultures were maintained undisturbed at 37° C. in a humidified 5% CO2/95% room air atmosphere for 13-16 days prior to use.
Mature cultures (13-16 days in vitro) were washed with Mg^2+-free buffered salt solution (BSS) containing 20 mM HEPES buffer (pH7.4) and 1.8 mM CaCl2, prior to the addition of NMDA. Following NMDA exposure, cultures were maintained for 30 minutes at 37° C. in a 5% CO2/95% air atmosphere. The medium containing NMDA was then removed and replaced with MEM supplemented with 20 mM glucose. The cultures were returned to the incubator for 24 h. In all experiments, cellular damage was assessed at 24 h after exposure to NMDA by measurement of the activity of lactate dehydrogenase (LDH) released into the medium as described below. The non-competitive NMDA receptor antagonist, MK-801 (Tocris Cookson Ins., St. Louis, Mo.) at a concentration of 10 μM was used as a positive control. Preliminary dose-response studies were performed to determine the concentration of NMDA (100 μM) required to effect a near-maximal LDH release (ED90) as used in the present study.
The effect of human recombinant apoE (Panverra, Madison, Wis.) on 100 μM NMDA-induced LDH release was assessed and the dose-response curve was obtained (apoE: 0.1-10 μM final concentration). ApoE3, the most common human isoform, was added to the cultures 30 minutes prior to and removed following NMDA exposure. The effect of apoE peptide (133-149) on NMDA (100 μM or 300 μM)-induced LDH release was next assessed and the dose-response curve was obtained in a separate set of sister cultures that were simultaneously treated under one of the following conditions: (1) various doses of peptide (0.3 μM, 1 μM, 3 μM, 6 μM, 10 μM final concentration) were added to the culture immediately prior to and removed at the end of NMDA exposure; (2) no peptide, NMDA exposure; (3) no peptide, no NMDA exposure; (4) no peptide, NMDA exposure with 10 μM MK-801 for 30 minutes. The effect of a scrambled control peptide on NMDA-induced LDH release was similarly assessed.
The effect of time of administration of apoE peptide (133-149) on NMDA-induced LDH release was assessed in a separate set of sister cultures that were simultaneously treated under one of following conditions: (1) peptide was added to the culture medium 24 h prior to and removed immediately before exposure to NMDA; (2) peptide was added immediately prior to and removed at the end of the NMDA exposure; (3) peptide was added immediately following the 30 minutes NMDA exposure; (4) no peptide, NMDA exposure; (5) no peptide, no NMDA exposure. […]

LDL receptor = LDL receptor (Homo sapiens, UniProt P01130); conditions: lipid-free peptide; cited from earlier work
LDL receptor, sequence (P01130 22-860, species assumed): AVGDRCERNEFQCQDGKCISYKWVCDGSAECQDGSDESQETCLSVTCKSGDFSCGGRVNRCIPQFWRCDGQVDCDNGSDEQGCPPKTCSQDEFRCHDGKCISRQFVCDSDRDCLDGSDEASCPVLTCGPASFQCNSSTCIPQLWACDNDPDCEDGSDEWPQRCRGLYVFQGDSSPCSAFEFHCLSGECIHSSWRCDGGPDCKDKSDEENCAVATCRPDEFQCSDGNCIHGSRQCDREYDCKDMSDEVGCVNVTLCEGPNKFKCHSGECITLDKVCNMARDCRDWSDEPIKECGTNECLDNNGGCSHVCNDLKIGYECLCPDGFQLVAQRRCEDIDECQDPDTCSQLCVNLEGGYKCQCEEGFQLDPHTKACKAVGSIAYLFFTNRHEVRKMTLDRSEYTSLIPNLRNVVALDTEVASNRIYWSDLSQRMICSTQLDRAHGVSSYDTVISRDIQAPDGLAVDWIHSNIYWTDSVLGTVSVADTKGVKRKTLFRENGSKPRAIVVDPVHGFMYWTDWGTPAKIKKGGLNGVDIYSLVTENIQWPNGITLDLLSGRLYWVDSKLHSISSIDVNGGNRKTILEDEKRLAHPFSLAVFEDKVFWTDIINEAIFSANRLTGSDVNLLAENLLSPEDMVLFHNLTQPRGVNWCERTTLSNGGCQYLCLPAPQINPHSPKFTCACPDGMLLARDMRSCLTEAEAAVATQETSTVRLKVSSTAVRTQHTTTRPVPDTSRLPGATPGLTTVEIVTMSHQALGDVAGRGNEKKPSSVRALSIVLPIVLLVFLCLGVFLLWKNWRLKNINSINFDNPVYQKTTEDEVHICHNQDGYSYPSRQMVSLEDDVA

[4] = system: enriched microglia primary cultures from apoE deficient mouse pups; experiment: LPS-stimulated nitric oxide (nitrite) secretion by enriched microglia primary cultures; assay type: cell-based; conditions: peptide dose of 2 mM, LPS 100 ng/ml
Method: Culture preparation and characterization: Mixed glial cell cultures were prepared from: (a) wildtype (C57B16; Jackson Laboratories) mouse pups; (b) ApoE deficient mutant mouse pups (ApoE-deficient mice), and (c) transgenic mouse pups expressing human ApoE3 but not murine ApoE (ApoE3 mice). See Xu et al., Neurobiol. Dis. 3:229 (1996) regarding the creation and characterization of the transgenic mice. Mixed glial cell cultures were prepared as has been described. See McMillian et al., Neurochem. 58:1308 (1992); Laskowitz et al., J. Neuroimmunol. 76:70 (1997). Briefly, brains were removed from 2-4 day old pups, cleaned of membranes and blood vessels, mechanically dispersed in Ca^+2-free media, and collected by centrifugation. Cells were then plated in DMEM/F12 (containing 10% fetal calf serum, 1% penicillin/streptomycin, Gibco #15070), one brain per 25 cm flask. […]
Nitrite Quantification The production of NO was assessed by measuring the accumulation of nitrite, which was quantified using a calorimetric reaction with Griess reagent (0.1% N-1-naphthylethylenediamine dihydrochloride, 1% sulfanilamide, and 2.5% H3PO4). Absorbance was measured at 570 nm by spectrophotometry. […]
Enriched microglia primary cultures were prepared from the brains of apoE deficient mouse pups as described in Example 1, above. […] Nitric oxide production was assessed as described in Example 1. […]

[5] = system: primary rat neuronal/glial cultures exposed to NMDA; experiment: NMDA-induced 45Ca uptake by primary neuronal-glial cultures; assay type: cell-based; conditions: 10 μM MK-801 pretreatment, 100 μM NMDA
Method: as §2
Cellular calcium uptake from the extracellular space was assessed using ^45CaCl2 (American Radiolabeled Chemicals, St. Louis, Mo.). After washing the cultures with Mg^2+-free BSS containing 20 mM HEPES buffer, 6 μM peptide or 10 μM MK-801 was added to each well prior to and removed at the end of 100 μM NMDA exposure. ^45Ca (0.28 μCi/ml, 0.9 μCi/well) was added to each well immediately prior to NMDA exposure. The cultures were returned to the incubator and maintained at 37° C. Twenty minutes later, the exposure medium was removed and each well was washed 3 times with ice-cold Mg^2+-free BSS containing 20 mM HEPES buffer. The cells were subsequently lysed by addition of 0.2% sodium dodecyl sulfate (SDS). An aliquot from each well was added to a liquid scintillation vial containing 10 ml Cytoscint™ (ICN, Biochemical Research Product, CA) and radioactivity was determined by scintillation counting and normalized to cell count.

Compound: pertussis toxin [reference compound]
- effect of preincubation on apoE-induced [Ca2+]i increase [1]: markedly attenuated the ApoE-dependent Ca^2+ response
- effect of pretreatment on apoE-induced IP3 increase [2]: completely abolished this increase in IP3

Compound: ApoE (139-149): 11-residue peptide, six amino-terminal residues removed from ApoE (133-149) (Ac-SHLRKLRKRLL-NH2; listed as Homo sapiens)
- protection against NMDA-induced cell damage, truncated peptides [3]: no detectable bioactivity

Compound: 141-155 monomer: lipid-free synthetic peptide comprising residues 141-155 of ApoE (Dyer et al.) (LRKLRKRLLRDADDL; UniProt P02649 159-173, looked up, fragment)
- LDL receptor binding activity (LDL receptor): No binding activity was observed

Compound: ApoE (136-149): 14 amino acid peptide, three amino-terminal residues removed from ApoE (133-149) (Ac-RLASHLRKLRKRLL-NH2; listed as Homo sapiens)
- protection against NMDA-induced cell damage, truncated peptides [3]: modest protection against NMDA toxicity

Compound: 141-155 dimer: dimeric peptide of ApoE residues 141-155 (Dyer et al.)
- LDL receptor binding (LDL receptor): ~1 % of LDL activity

Compound: LRKLRKRLL (fragment of ApoE containing LDL receptor binding site) [SEQ ID NO:2, 9-mer monomer, ApoE positions 141-149, used as control]
- nitric oxide secretion by activated microglia [4]: did not result in any apparent decrease in nitric oxide secretion

Compound: [Cl][Ni][Cl] [Ni^+2, NiCl2, reference compound]
- effect of preincubation on apoE-induced [Ca2+]i increase [1]: markedly attenuated the [Ca^2+]i increases

Compound: C[C@]12N[C@H](Cc3ccccc31)c1ccccc12 [MK-801, reference compound]
- NMDA-induced calcium influx [5]: completely reversed
